In US10201580B2, “Methods of feeding animals liquid feed with soluble fiber and sugar alcohol” (PURINA ANIMAL NUTRITION LLC, priority 2004, dated 2019):

How the values were obtained:
[1] = system: Holstein bull calves; experiment: Further trial, calf milk replacer without psyllium, with or without sorbitol: scour score and scour days; format: in vivo; details: 6 g of sorbitol per day
From the text: (§1) A further trial was ran to determine what effect sorbitol without a dietary fiber would have on calves fed an intensified diet of calf milk replacer. Forty-six three to ten day old Holstein bull calves weighing approximately 90 to 100 pounds were fed an intensified diet of calf milk replacer. Twenty-four calves were fed a calf milk replacer without psyllium and without sorbitol and twenty-two calves were fed calf milk replacer without psyllium but with sorbitol. […] were fed 6 grams each per day of sorbitol. Data for parameters presented in the Tables above was analyzed using the general linear model (GLM) statistical procedure of SAS™. Statistical analysis software for a randomized complete block design that included both the particular feed regimen and the week of the test period in the model statement. The SAS™ statistical analysis software is available from SAS Institute, Inc. of Cary, N.C. Additionally, all data was analyzed to determine the mean of the data for each variable under consideration during the collection period for the particular data. Additionally, the PDiff function of the GLM statistical procedure was used to characterize the mean values of the data by providing for comparisons between mean data values for the calves of different treatments for particular test parameters or variables.

[2] = system: Holstein bull calves; experiment: Further trial, calf milk replacer without psyllium, with or without sorbitol: respiratory scores; format: in vivo; details: 6 g per day of sorbitol; no psyllium
From the text: as §1

[3] = system: Holstein bull calves; experiment: Further trial, calf milk replacer without psyllium, with or without sorbitol: weaning scores; format: in vivo; details: 6 g per day of sorbitol; no psyllium
From the text: as §1

[4] = Further trial, calf milk replacer without psyllium, with or without sorbitol: weight gain, CMR consumption, starter intake, feed:gain; format: in vivo, Holstein bull calves; details: 6 g per day of sorbitol
From the text: as §1

## OC[C@@H](O)[C@@H](O)[C@H](O)[C@@H](O)CO [sorbitol]
[1]
  difference in scour score vs calves fed no sorbitol: no statistically significant different
  difference in scoured days vs calves fed no sorbitol: no statistically significant different
[2]
  difference in respiratory scores vs calves not fed any sorbitol: no statistically significant difference
[3]
  difference in weaning scores vs calves not fed any sorbitol: no statistically significant difference
[4]
  difference in average feed:gain (feed efficiency) vs calves fed no sorbitol: no statistically significant difference
  difference in calf milk replacer consumption vs calves fed no sorbitol: no statistically significant difference
  difference in starter feed intake vs calves fed no sorbitol: no statistically significant difference
  difference in total weight gain vs calves fed no sorbitol: no statistically significant difference
